Data from patent US20260077043A1, “COMBINATION THERAPY” (LEAP THERAPEUTICS, INC., priority 2022, published 2026).

Assays:
[1] = system: HCT116 human colorectal carcinoma cells without the PIK3CA H1047R mutation; test: HCT116 PIK3CA+/− subcutaneous xenograft, tumor growth inhibition; assay type: in vivo, BALB/c scid mice; settings: Day 52 (Treatment Day 36), compared to the IgG4 control; DKN-01 5 mg/kg IP twice weekly, BYL719 25 mg/kg PO QD
Description: (§1) A study was initiated to evaluate growth of a human colorectal cancer cell line, HCT116, with and without the PI3KCA H1047R mutation in mice treated with DKN-01, the PI3KCA inhibitor BYL719 (Alpelisib), or the combination. Female BALB/c scid mice were inoculated subcutaneously with HCT116 human colon carcinoma cells with or without the H1047R mutation on Day 0. On Day 17, when tumors volumes had reached 50-75 mm3, animals were randomized into treatment groups and dosing was initiated.
(§2) Female BALB/c scid mice (10 per group) were inoculated subcutaneously in the right flank with 10×10^6 HCT116 human colorectal carcinoma cells on Day 0. Human IgG4 control (10 mg/kg) and DKN-01 (5 mg/kg) were administered intraperitoneally (IP) twice weekly. BYL719 (25 mg/kg) was administered orally (PO) every day (QD) for the duration of the study. Tumor measurements were performed every 3-4 days with calipers and volume (V) was calculated using the following formula: V=½(length [mm]×width [mm]^2). Data are shown as mean tumor volumes (MTV)+SEM. #, p<0.05. Percent TGI =[(MTV Control)−(MTV Treated)]/(MTV Control). Comparisons between groups at study termination were performed using a one-way repeated measures ANOVA with Tukey's multiple comparisons test.

[2] = system: HCT116 human colorectal carcinoma cells with H1047R mutation; test: HCT116 H1047/− subcutaneous xenograft, tumor growth inhibition; assay type: in vivo, BALB/c scid mice; settings: Day 48 (Treatment Day 36), compared to the IgG4 control; DKN-01 5 mg/kg IP twice weekly, BYL719 25 mg/kg PO QD
Description: as §1, §2

## Cc1nc(NC(=O)N2CCC[C@H]2C(N)=O)sc1-c1ccnc(C(C)(C)C(F)(F)F)c1 [BYL719, Alpelisib]
[1]
  Tumor Growth Inhibition (TGI): 50%
[2]
  Tumor Growth Inhibition (TGI): 56%
